Test results published in patent US7415306B2, “Transdermal delivery system for anti-emetic medication” (TransPharma Medical Ltd., priority 2002, dated 2008).
Where a name gives a salt, the structure may show the parent alone.

Tests used:
[1] = Pharmacokinetic study of transdermal drug delivery in rats (granisetron hydrogel patch with or without ViaDerm); assay type: in vivo, Male Sprague-Dawley rats; conditions: 3% granisetron HCl hydrogel patch
Procedure: Male Sprague-Dawley rats (400-500 g, Harlan Laboratories Ltd., Jerusalem, Israel) were anesthetized (5 mg/kg ketamine i.p.) and were placed dorsally. Anesthesia was maintained until the end of the transdermal treatment and during blood sampling by injections of 0.1 ml ketamine and Xyalzine (60-80 mg/ml) every 30-40 min. The abdominal skin was shaved and cleaned with isopropyl alcohol. After 30 minutes, the transepidermal water loss was measured in order to verify skin integrity and RF-micro-channeling took place on the abdominal skin of a test group. […] A granisetron patch, made of a solution of 3% granisetron HCl soaked in a hydrogel sheet of 1.4 cm , was then attached to the skin surface for 24 hr in special containers glued to the skin by silicon medical glue. Blood samples were taken from the heart into heparinized tubes. After centrifugation, plasma samples were kept at −20° C. until analyzed for drug levels by HPLC.
The procedure was basically performed according to Kudoh et al, J. Chromatography 660(1994) p. 205. Phosphate buffer (500 μl, pH 7, 67 mM) was mixed with one ml plasma. […] Aliquots (30 μl) from each sample were injected into the HPLC (1050 HP), equipped with a pre-packed C8 column (BDS-Hypersil, UK; C-8 100×3.0 mm, 3 μm), an auto-sampler, and a fluorescence detector (Model 1046A). Granisetron was detected by excitation at 305 nm and emission at 365 nm. […]

[2] = Clinical bioavailability study with granisetron patches and ViaDerm versus oral delivery (plasma levels, irritation); conditions: human, 1 tablet of 1 mg twice daily, reached only for short time periods, unsteady profile
Procedure: Granisetron HCl patches were applied on the skin of the upper arm and fore arm of healthy adult volunteers. […] Irritation was examined by monitoring edema and erythema as described in Example 6.
The experiment was conducted with six subjects, in a crossover manner. Each subject received four different treatments, i.e. various administration methods at various sites of patch application, with at least six days washout period between treatments.
ViaDerm performance was assessed by a study conducted with twenty healthy, adult volunteers, 10 males and 10 females. […] Each subject received 10 treatments, in a randomized manner such that a given treatment was applied to different subjects and/or in each subject at different sites. • Treatment protocol. The treatment sites were the inner arm and hand. […] Measuring Transdermal Water Loss (TEWL) at a skin site treated with ViaDerm in comparison to an adjacent untreated skin assessed formation of micro-channels. […]

[3] = Clinical patch-size study with granisetron patches and ViaDerm (plasma levels, erythema/edema)
From the text: The purpose of the first phase study was to determine patch size per drug dose. The target population for the study was healthy male and female volunteers who signed informed consent and fulfilled the following inclusion criteria: • 1. Are capable of understanding and signing an informed consent • 2. Are between the ages of 18 and 60 years • 3. Are medically stable • 4. Have fair skin color that enable to observe erythema and/or edema. • 5. Have two hands with no obvious marks, bruises, cuts, and abrasions on the back of the hand. • 6. Hemoglobin more than 12 gm % in females and more than 14 gm % in males.
Granisetron HCl patches were applied on the skin of the upper arm and fore arm of healthy adult volunteers. […] Irritation was examined by monitoring edema and erythema as described in Example 6. […]
ViaDerm performance was assessed by a study conducted with twenty healthy, adult volunteers, 10 males and 10 females. […] Measuring Transdermal Water Loss (TEWL) at a skin site treated with ViaDerm in comparison to an adjacent untreated skin assessed formation of micro-channels. Safety of ViaDerm was evaluated by measuring irritation (erythema and edema) at the treatment site using a scale of zero to eight in accordance with Draize irritation index (Table 4). The response to irritation induced by ViaDern was assessed by a Cumulative Irritation Index (Table 5). […]

granisetron plasma level (peak) ([1]; rats not treated with ViaDerm, peak at 2.5 hours after application): lower than 50 ng/ml | granisetron plasma level ([1]; rats pretreated with ViaDerm, reached during first 12 hours, maintained for additional 12 hours): above 200 ng/ml | maximal plasma concentration ([3]; human, ViaDerm + granisetron patch (3% drug) covering 5.6 cm^2, applied 24 hours): above 4 ng/ml
SMILES: CN1C2CCCC1CC(NC(=O)c1nn(C)c3ccccc13)C2 (centres unmarked) [granisetron, granisetron hydrochloride]
plasma levels of granisetron [2]: above 4 ng/ml | maximal concentration of granisetron in human plasma versus patch size ([3]; ViaDerm + patches of 2.8, 5.6 and 8.4 cm^2): linearly correlated with the size of patch
